Results on two molecules are retold here after patent publication US20200371122A1, “BIOMARKER FOR SENESCENT CELLS” (Buck Institute for Research on Aging, priority 2017, published 2020).

Test [1] deals with C57BL6/J and p16-3MR mice injured with bleomycin. Put plainly: Bleomycin-induced pulmonary fibrosis in mice. The class given is in vivo, mouse. Here is the method:
RNA was extracted from cells or tissues using commercially available kits (Isolate II—Bioline for cells; Direct-zol—Zymo for tissues) according to the manufacturer's instructions. cDNA synthesis was performed using a High Capacity cDNA Reverse Transcription Kit (Thermo Fisher) according to the manufacturer's instructions. Quantitative PCR was performed on a LightCycler 480 II (Roche) using primers and probes designed for the Universal Probe Library. Primers and probes used for human transcripts were ACTB: 5′-CCAACCGCGAGAAGATGA (SEQ ID NO:1), 5′-TCCATCACGATGCCAGTG (SEQ ID NO:2), Probe #64; TUBA: 5′-cttcgtctccgccatcag (SEQ ID NO:3), 5′-ttgccaatctggacacca (SEQ ID NO:4), Probe #58; ALOX5: 5′-[…] (SEQ ID NO:5), 5′-[…] (SEQ ID NO:6), Probe #64; ALOX5AP: 5′-ggtctgcggggctacttt (SEQ ID NO:7), 5′-[…] (SEQ ID NO:8), Probe #18; ALOX12: 5′-[…] (SEQ ID NO:9), 5′-agccaggtcgtcaggag (SEQ ID NO:10), Probe #32; ALOX15: 5′-[…] (SEQ ID NO:11), 5′-[…] (SEQ ID NO:12), Probe #76; ALOX15B: 5′-[…] (SEQ ID NO:13), 5′-actgggaggcgaagaagg (SEQ ID NO:14), Probe #51; AKR1C1: 5′-catgcctgtcctgggattt (SEQ ID NO:15), 5′-[…] (SEQ ID NO:16), Probe #49; AKR1C2: 5′-ctatgcgcctgcagaggt (SEQ ID NO:17), 5′-[…] (SEQ ID NO:18), Probe #31; AKR1C3: 5′-[…] (SEQ ID NO:19), 5′-[…] (SEQ ID NO:20), Probe #78; CYSLTR2: 5′-[…] (SEQ ID NO:21), 5′-[…] (SEQ ID NO:22), Probe #18; DPEP1: 5′-gacgtcctgaggctggtg (SEQ ID NO:23), 5′-[…] (SEQ ID NO:24), Probe #9 (SEQ ID NO:25), ELOVL2: 5′-[…] (SEQ ID NO:26), 5′-[…] (SEQ ID NO:27), Probe #53; ELOVL4: 5′-catttggcccatggattc (SEQ ID NO:28), 5′-[…] (SEQ ID NO:29), Probe #31; ELOVL5: 5′-cccttccatgcgtccata (SEQ ID NO:30), 5′-[…] (SEQ ID NO:31), Probe #31; EPHX2: 5′-ttctgctggacaccctgaa (SEQ ID NO:32), 5′-[…] (SEQ ID NO:33), Probe #45; GPX4: 5′-ttcccgtgtaaccagttcg (SEQ ID NO:34), 5′-[…] (SEQ ID NO:35), Probe #36; LTA4H: 5′-ctgctctcacggtccagtc (SEQ ID NO:36), 5′-[…] (SEQ ID NO:37), Probe #64; LTBR2: 5′-[…] (SEQ ID NO:38), 5′-[…] (SEQ ID NO:39), Probe #33; LTC4S: 5′-[…] (SEQ ID NO:40), 5′-[…] (SEQ ID NO:41), Probe #18; PTGDS: 5′-[…] (SEQ ID NO:42), 5′-[…] (SEQ ID NO:43), Probe #36; PTGES: 5′-agagatgcctgcccacag (SEQ ID NO:44), 5′-tggccaccacgtacatctt (SEQ ID NO:45), Probe #4; PTGES2: 5′-[…] (SEQ ID NO:46), 5′-[…] (SEQ ID NO:47), Probe #49; PTGES3 (SEQ ID NO:48), 5′-[…] (SEQ ID NO:49), 5′-[…] (SEQ ID NO:50), Probe #48; PTGIS: 5′-[…] (SEQ ID NO:51), 5′-[…] (SEQ ID NO:52), Probe #45; PTGR1: 5′-atgatggggcagcaagtg (SEQ ID NO:53), 5′-cccatcagaaatggagtgc (SEQ ID NO:54), Probe #64; PTGS1: 5′-[…] (SEQ ID NO:55), 5′-gtggtggtccatgttcctg (SEQ ID NO:56), Probe #81; PTGS2: 5′-gatccccagggctcaaac (SEQ ID NO:57), 5′-[…] (SEQ ID NO:58), Probe #61; TBXAS1: 5′-[…] (SEQ ID NO:59), 5′-tgcctcccgtgtgaatct (SEQ ID NO:60), Probe #73; AREG: 5′-[…] (SEQ ID NO:61), 5′-[…] (SEQ ID NO:62), Probe #73; CCL2: 5′-AGTCTCTGCCGCCCTTCT (SEQ ID NO:63), 5′-GTGACTGGGGCATTGATTG (SEQ ID NO:64), Probe #40; CCL27: 5′-[…] (SEQ ID NO:65), 5′-gctgggtggcagtaggaat (SEQ ID NO:66), Probe #18; CXCL1: 5′-[…] (SEQ ID NO:67), 5′-[…] (SEQ ID NO:68), Probe #52; HGF: 5′-[…] (SEQ ID NO:69), 5′-[…] (SEQ ID NO:70), Probe #49; ILIA: 5′-[…] (SEQ ID NO:71), 5′-[…] (SEQ ID NO:72), Probe #6; IL1B: 5′-[…] (SEQ ID NO:73), 5′-[…] (SEQ ID NO:74), Probe #78; IL6: 5′-[…] (SEQ ID NO:75), 5′-gaaggcagcaggcaacac (SEQ ID NO:76), Probe #45; IL8: 5′-[…] (SEQ ID NO:77), 5′-atggttccttccggtggt (SEQ ID NO:78), Probe #72; IL10: 5′-[…] (SEQ ID NO:79), 5′-[…] (SEQ ID NO:80), Probe #67; MMP3: 5′-[…] (SEQ ID NO:81), 5′-[…] (SEQ ID NO:82), Probe #36; PDGFA: 5′-[…] (SEQ ID NO:83), 5′-[…] […]

Test [2] has the same test system. Put plainly: Bleomycin-induced pulmonary fibrosis in mice. The class given is in vivo, mouse. The source holds these as a separate data set.
Another test concerns IL-6 secretion. Put plainly: IL-6 ELISA on non-senescent cells treated with prostaglandins. The class given is cell-based, human. As to conditions: 10 μM, 10 days. Here is the method: Human fetal lung fibroblasts (IMR-90) were cultured in Dulbecco's modified eagle medium (DMEM) supplemented with 10% FBS and penicillin/streptomycin. LL 29 (AnHa) cells were obtained from the ATCC and growth to confluence using the ATCC protocol, but were subcultured as described for IMR-90 before initiation of all experiments. Quiescence was induced by replacing culture media with media containing 0.2% FBS. MCF-7 and MDA-MB-231 breast cancer cells were cultured in RPMI supplemented with 10% FBS and penicillin/streptomycin. All cells were cultured at 3% O2, and used between 25 and 40 population doublings. All cells were mycoplasma free.
3×10^4 cells in 12-well plates were treated as indicated in the text, and cultured in 0.5-1 ml serum-free DMEM for 24 hr. CM were collected and clarified at 2,000×g for 10 min. Supernatants were transferred to a tube; cells were trypsinized and counted. CM (2.5 μl) were analyzed by bead-based ELISAs (AlphaLISA, Perkin-Elmer) as instructed by the manufacturer and normalized to cell number.
For orientation: An ELISA detects its analyte on a solid surface through an enzyme-linked reagent.

The mark [3] stands for this setting: bleomycin-treated animals, day 14, ELISA.

In the case of `CC1(C)CCC(c2ccc(Cl)cc2)=C(CN2CCN(c3ccc(C(=O)NS(=O)(=O)c4ccc(N[C@H](CCN5CCOCC5)CSc5ccccc5)c(S(=O)(=O)C(F)(F)F)c4)cc3)CC2)C1` [ABT-263, 4-[4-[[2-(4-chlorophenyl)-5,5-dimethylcyclohexen-1-yl]methyl]piperazin-1--yl]-N-[4-[[(2R)-4-morpholin-4-yl-1-phenylsulfanylbutan-2-yl]amino]-3-(tri-fluoromethylsulfonyl)phenyl]sulfonylbenzamide], the “RNA levels of p16INK4a and p21WAF1 in lungs” value in test [1] (14 days after bleomycin injury) is “significantly attenuated”. Also, in test [1] (bleomycin-injured mice, 21 days after injury as printed), the “collagen expression (Col3a1 and Col4a1)” value is listed as “reduced”. Also, in test [1] (bleomycin-injured mice, day 14), the “mRNA levels of Alox5, Ltc4s, Ptgs2, Ptgds, and Ptges in lungs” value was “lowered these levels to those of PBS-treated animals”. The “histological staining of lungs with picrosirius red” value in test [2] (21 days after bleomycin) is reported as “attenuation of the fibrotic response”. The “collagen content (hydroxyproline)” value in test [2] (21 days after injury) was “reduced”. For the same molecule, in test [2] (setting [3]), the “cysteinyl leukotrienes in bronchioalveolar lavage fluid (BALF)” value is “reduced” and the “prostaglandin E2 in bronchioalveolar lavage fluid (BALF)” value was “reduced”. For the same molecule, the “phosphorylation of cPLA2” value in test [2] (bleomycin-treated mice, lung, day 14) is on record as “lowered”.
Regarding `CCCCC[C@H](O)/C=C/[C@H]1C=CC(=O)[C@@H]1C/C=C\CCCC(=O)O` [PGA2], in the test on IL-6 secretion, the IL-6 secretion entry is reported as “elevated”.
